# Experimental data taken from patent publication US7498406B2, “Substantially cell membrane impermeable compound and use thereof” (priority 1999, dated 2009).
# Columns and labels:
# BAE = test: Proliferation of cultured cells, 72 hr; assay type: cell-based, bovine; conditions: for IC50: 72 hr
# Method: BCE (Folkman et al. 1979), BAE, BxPC-3 (ATCC, Bethesda, Md.), HT1080 (Jiang et al., 1999), 3T3 (ATCC, Bethesda, Md.) and BVSM (Hogg et al., 1997) cells were harvested and cultured as indicated. Cells (0.5 mL of 30,000 or 100,000 cells per mL) were seeded into gelatinized 24-well culture plates (Corning Costar, Corning, N.Y.) in Dulbecco's Modified Eagle's Medium (DMEM, JHR Bioscience, Lenexa, Kans.) containing 10% fetal calf serum (FCS, Intergen Comp., Purchase, N.Y.) and 1% Glutamine Pen-Strep (GPS, Irvine Scientific, Santa Ana, Va.) and allowed to attach for 24 hr in 10% CO2 at 37° C. The media was then replaced with DMEM and 1% GPS containing 0 to 1 mM GSAO or GSAA and either 5% bovine calf serum (BCS, HyClone, Logan, Utah) and 1 ng per mL FGF-2 (Genzyme, Cambridge, Mass.) or 5% BCS and 10 ng per mL VEGF (Genzyme, Cambridge, Mass.) for BCE cells, 5% or 10% BCS for BAE cells, 5% BCS for BVSM cells, and 5% FCS for BxPC-3, HT1080 and 3T3 cells. Cells were cultured for 0 to 72 hr in 10% CO2 at 37° C. then dispersed in trypsin/EDTA (GibcoBRL, Granc Island, N.Y.), resuspended in Coulter balanced electrolyte solution and counted with a Z1 Coulter counter (Coulter Corp., Miami, Fla.) in all experiments there were two control wells containing DMEM with 1% GPS and either 5% BCS for BCE cells, 2% BCS for BAE and BVSM cells, or 2% FCS for BxPC-3, HT1080 and 3T3 cells. These wells represented no to limited proliferation.
# 3T3 = test: Viability of cultured cells, 72 hr; assay type: cell-based, murine; conditions: 0 to 1 mM
# Method: FIG. 19. Effect of GSAO on proliferation of non-endothelial cells. 15,000 BxPC-3 (part A), HT1080 (part B), 3T3 (part C) or BVSM (part D) cells per well were seeded into gelatinised 24-well culture plates and allowed to attach for 24 hr. The media was then replaced with DMEM containing 0 to 1 mM GSAO or GSAA and either 5% BCS (part D) or 5% FCS (parts A, B and C). Cells were cultured for 72 hr and then dispersed and counted. The dotted lines indicate the cell number in control wells containing DMEM and 2% BCS (part D) or 2% FCS (parts A, B and C) which represented no to limited proliferation. The data points and errors represent the mean and range of duplicate wells.
# BCE (Folkman et al. 1979), BAE, BxPC-3 (ATCC, Bethesda, Md.), HT1080 (Jiang et al., 1999), 3T3 (ATCC, Bethesda, Md.) and BVSM (Hogg et al., 1997) cells were harvested and cultured as indicated. […] Cells were cultured for 0 to 72 hr in 10% CO2 at 37° C. then dispersed in trypsin/EDTA (GibcoBRL, Granc Island, N.Y.), resuspended in Coulter balanced electrolyte solution and counted with a Z1 Coulter counter (Coulter Corp., Miami, Fla.) in all experiments there were two control wells containing DMEM with 1% GPS and either 5% BCS for BCE cells, 2% BCS for BAE and BVSM cells, or 2% FCS for BxPC-3, HT1080 and 3T3 cells. […]
# BxPC-3 tumours [1] = test: Tumour growth in mice, subcutaneous administration; assay type: in vivo, SCID mice; conditions: for inhibition of the rate of BxPC-3 tumour growth: subcutaneous
# Method: FIG. 23. Inhibition of human pancreatic tumour growth by GSAO. BxPC-3 tumours were established in the proximal midline of female 7 to 9 week old SCID mice. When the tumours were ˜0.1 cm^3 in volume the mice were randomised into two groups and treated with either GSAA or GSAO at doses of 2 (part A) or 10 (part B) mg per kg per day in 0.2 mL of PBS containing 100 mM glycine. The compounds were administered subcutaneously at a site distant from the tumour. Tumour volume and animal weight was measured every 3 days. The GSAO/GSAA tumour volume ratio at day 26 of treatment with 2 mg per kg per day was 0.34 (part A). The GSAO/GSAA tumour volume ratio at day 31 of treatment with 10 mg per kg per day was 0.09 (part B). There were 4 mice per group in part A and 4 mice treated with GSAA and 5 with GSAO in part B. The mice and excised tumours from the experiment described in Part B at day 31 of treatment are shown in Part C. The data points and errors represent the mean and SE of the tumour volumes.
# Female 7 to 9 week old SCID or C57Bl6/J mice were used (Massachusetts General Hospital, Boston, Mass.). Mice were held in groups of 3 to 5 at a 12 hour day and night cycle and were fed with animal chow and water ad libidum. SCID mice were anaesthetised by inhalation of isoflurane, the dorsal skin shaved and cleaned with ethanol, and a suspension of 2.5×10^6 BxPC-3 or HT1080 cells in 0.2 mL of DMEM was injected subcutaneously in the proximal midline. C57Bl6/J mice with Lewis lung carcinomas of 0.6-1.2 cm^3 volumes were sacrificed and the skin overlying the tumour was cleaned with betadine and ethanol. Tumour tissue was excised under aseptic conditions and a suspension of tumour cells in 0.9% saline was made by passage of tumour tissue through a sieve and a series of sequentially smaller 22- to 30-gauge hypodermic needles. C57Bl6/J mice were anaesthetised and prepared as for SCID mice and a suspension of Lewis lung carcinoma cells in 0.2 mL of saline was injected subcutaneously in the proximal midline. Tumours were allowed to establish and grow to a size of ˜0.1 cm^3 after which they were randomised into two groups. The tumours were measured in two diameters and tumour volume was calculated using the relationship, tumour volume=a×b^2×0.52, where a is the longest and b the shortest diameters in cm. Animals were treated with either GSAA or GSAO at doses of 2 or 10 mg per kg per day in 0.2 mL of PBS containing 100 mM glycine. The compounds were administered subcutaneously at a site distant from the tumour. Tumour volume and animal weight was measured every 3 days. The tumours were excised and weighed when the animals were sacrificed.
# BxPC-3 tumours [2] = test: Tumour growth, oral administration in water; assay type: in vivo, SCID mice; conditions: ~10 mg per kg per day in water
# Method: (§1) FIG. 28. Inhibition of human pancreatic carcinoma and murine Lewis lung tumour growth by oral administration of GSAO. BxPC-3 or Lewis lung tumours were established in the proximal midline of female 7 to 9 week old SCID or C57Bl6/J mice, respectively, SCID mice bearing ˜0.5 g BxPC-3 tumours or C57Bl6/J mice bearing 0.1 g Lewis lung tumours were randomised into two groups (n=2 for BxPC-3 and n=3 for Lewis lung) and treated with either GSAA or GSAO (0.05 mg per mL) in their water. Mice drink ˜5 mL of water per day and therefore consumed ˜10 mg GSAO or GSM per kg per day. The water contained 100 mM glycine to minimise oxidation of GSAO. Tumour volume and animal weight was measured every 3 days. The data points and errors represent the mean and SE of the tumour volumes.
# (§2) SCID mice bearing subcutaneous human pancreatic carcinoma tumours or C57Bl6/J mice bearing subcutaneous murine Lewis lung tumours were fed either ˜10 mg per kg per day GSAO or GSAA in their water.
# Lewis lung tumours = test: Tumour growth, oral administration in water; assay type: in vivo, C57Bl6/J mice; conditions: ~10 mg per kg per day in water
# Method: as §1, §2
Structure (SMILES),IC50 (BAE; 5% BCS),IC50 (BAE; 10% BCS),"IC50 (3T3; Mus musculus, NIH3T3, 5% FCS)",inhibition of the rate of BxPC-3 tumour growth (BxPC-3 tumours [1]; 2 mg per kg per day),inhibition of the rate of BxPC-3 tumour growth (BxPC-3 tumours [1]; 10 mg per kg per day),"GSAO/GSAA tumour volume ratio (BxPC-3 tumours [1]; day 26 of treatment, 2 mg per kg per day)","GSAO/GSAA tumour volume ratio (BxPC-3 tumours [1]; day 31 of treatment, 10 mg per kg per day)",growth of pancreatic tumours (BxPC-3 tumours [2]),reduction of the rate of Lewis lung tumour growth (Lewis lung tumours),effect on proliferation of BAE cells (BAE; not shown),Viability IC50 (3T3; 5% FCS)
"NC(CCC(=O)NC(CSCC(=O)Nc1ccc([As]=O)cc1)C(=O)NCC(=O)O)C(=O)O (stereo not drawn) [GSAO, 4-(N-(S-glutathionylacetyl)amino)-phenylarsenoxide]",~20 nM,~200 nM,~40000 nM,~70%,> 90%,0.34,0.09,stopped growing,~50%,,
"N[C@@H](CCC(=O)N[C@@H](CSCC(=O)Nc1ccc([As](=O)(O)O)cc1)C(=O)NCC(=O)O)C(=O)O [GSAA, 4-(N-(S-glutathionylacetyl)amino)phenylarsonic acid, reference compound]",,,,no effect,< 20%,,,no significant effect,no significant effect,did not effect either proliferation or viability,no significant effect
